For this experiment, the target named is PDE1B (Homo sapiens, UniProt Q01064). The experiment in a line: In vitro HTRF PDE1 inhibition assay (PDE1B). It counts as biochemical. Conditions: in vitro PDE1B HTRF Assay; read-out: IC50. For orientation: In TR-FRET formats the signal depends on donor and acceptor labels being close together.
PDE1B, sequence (Q01064 whole entry): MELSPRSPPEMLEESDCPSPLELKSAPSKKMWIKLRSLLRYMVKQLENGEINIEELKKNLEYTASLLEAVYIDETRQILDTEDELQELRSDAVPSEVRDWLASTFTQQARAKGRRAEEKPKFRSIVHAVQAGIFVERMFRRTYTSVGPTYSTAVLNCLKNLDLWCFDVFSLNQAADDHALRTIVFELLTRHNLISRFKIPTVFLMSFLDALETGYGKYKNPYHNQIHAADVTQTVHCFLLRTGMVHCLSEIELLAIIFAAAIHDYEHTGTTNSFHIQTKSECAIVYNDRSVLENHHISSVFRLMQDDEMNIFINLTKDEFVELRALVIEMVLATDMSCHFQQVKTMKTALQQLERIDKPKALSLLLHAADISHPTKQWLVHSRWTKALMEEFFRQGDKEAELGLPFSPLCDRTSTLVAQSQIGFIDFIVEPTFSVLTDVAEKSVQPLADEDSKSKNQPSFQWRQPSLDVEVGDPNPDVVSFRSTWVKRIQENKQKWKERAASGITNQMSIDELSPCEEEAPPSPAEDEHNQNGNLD

Text: The HTRF PDE1 assay utilized the HTRF (Homogenous Time Resolved Fluorescence) technology, which is based on the competition between unlabeled cyclic nucleotide and cyclic nucleotide labeled with XL665 for the binding to cyclic nucleotide-specific antibody labeled with cryptate. The HTRF signal is thus inversely proportional to the concentration of cyclic nucleotide being measured. Since phosphodiesterases break down cyclic nucleotides, the HTRF signal was used to determine PDE activity.
The Cisbio cGMP HTRF assay kit (Cat no: 62GM2PEC) was utilized. Cyclic GMP was diluted to 200 nM in HTRF assay buffer (1 mM CaCl2, 10 mM MgCl2, 10 mM Tris-HCl, 0.1% BSA, pH 7.4). […] PDE (1A3, 1B or 1C) was diluted to 2× working concentration in HTRF assay buffer with 2 μg/ml Calmodulin, and 10 μl was added to initiate the reaction. The plate was then incubated for 45 minutes at 27° C. d2-Labelled cyclic GMP and anti-cGMP cryptate were diluted in 50 mM phosphate buffer, 0.8 M KF, 1% Triton X100, 0.2% BSA, pH 7.0. Following incubation 10 μl d2-cGMP, then 10 μl anti cGMP cryptate were added to each well and the plate was incubated for 60 minutes at room temperature. The plate was then read on Perkin Elmer EnVision at 2 different FRET readings ex/em 340 nm/665 nm and 340 nm/615 nm.

For orientation: IC50 means the concentration needed to halve the response being measured. Regarding `CCn1c(OC[C@H]2CC[C@@H](OC)CC2)nn2c(C3CCOCC3)ncc2c1=O` [Example 90], the IC50 was less than 1 µM.
Take `CC(C)c1ncc2c(=O)n(C)c(NCc3ccc(F)cn3)nn12` [Example 154]: the IC50 was in the range of 1 to 10 µM.
For the compound `CCn1c(NCc2ccc(F)cn2)nn2c(C(C)C)ncc2c1=O` [Example 171], the IC50 is less than 1 µM.
With `CCn1c(OCC2(c3ccccc3)CC2)nn2c(C3CCOCC3)ncc2c1=O` [Example 82], the IC50 was less than 1 µM.
Regarding `Cc1ccc(OCc2nn3c(C(C)C)ncc3c(=O)n2C)cc1` [Example 225], the IC50 fell in the range of 1 to 10 µM.
For the compound `COCCC1CCN(c2nn3c(C4CCOCC4)ncc3c(=O)n2C)CC1` [Example 193], the IC50 is less than 1 µM.
The figure for `Cn1c(OCc2cccc(C#N)c2)nn2c(C3CCOCC3)ncc2c1=O` [Example 29] is 1 to 10 µM; for `CC(Oc1nn2c(C3CCOCC3)ncc2c(=O)n1C)c1ccc(-c2ccccn2)cc1` (stereo not shown) [Example 52] it is less than 1 µM; for `COc1nn2c(C3CCOCC3)ncc2c(=O)n1CCC1CCC(F)(F)CC1` [Example 105] it is less than 1 µM.
The same measure for `CC(C)c1ncc2c(=O)[nH]c(N3CCC[C@H]3c3ccccc3)nn12` [Example 131]: 1 to 10 µM; for `CCn1c(OCCc2ccccn2)nn2c(C3CCOCC3)ncc2c1=O` [Example 64]: less than 1 µM; for `O=c1[nH]c(N2CCCC2c2ccccc2Cl)nn2c(C3CCOCC3)ncc12` (stereo not shown) [Example 127]: less than 1 µM.
The figure for `CCn1c(OCC2CCC(OC(F)(F)F)CC2)nn2c(C3CCOCC3)ncc2c1=O` (stereo not shown) [Example 285] is less than 1 µM.
As to `Cn1c(/C=C/c2ccc(F)cc2)nn2c(C3CCOCC3)ncc2c1=O` [Example 240, 2-[(E)-2-(4-Fluorophenyl)ethenyl]-3-methyl-7-(tetrahydro-2H-pyran-4-yl)imidazo[5,1-f][1,2,4]triazin-4(3H)-one], the IC50 is less than 1 µM.
The figure for `COCCN1CCN(c2nn3c(C4CCOCC4)ncc3c(=O)n2C)CC1` [Example 186] is less than 1 µM; for `Cn1c(OC[C@H]2CC[C@H](C(F)(F)F)CC2)nn2c(C3=CCOCC3)ncc2c1=O` [Example 328, 7-(3,6-dihydro-2H-pyran-4-yl)-3-methyl-2-{[trans-4-(trifluoromethyl)cyclohexyl]methoxy}-imidazo[5,1-f][1,2,4]triazin-4(3H)-one] it is less than 1 µM.
The figure for `Cn1c(N2CC[C@@H](Oc3ccc(F)cn3)C2)nn2c(C3CCOCC3)ncc2c1=O` [Example 189] is less than 1 µM.
Take `CCc1ccc([C@H]2CCCN2c2nn3c(C(C)C)ncc3c(=O)n2C)cc1` [Example 168]: the IC50 is less than 1 µM.
As for `CC(C)c1ncc2c(=O)n(C)c(OCc3ccc(F)cc3)nn12` [Example 14], the IC50 is less than 1 µM.
Take `COCC1CCN(c2nn3c(C4CCOCC4)ncc3c(=O)n2C)CC1` [Example 192]: the IC50 is less than 1 µM.
The same measure for `Cc1ccc(COc2nn3c(C4CCOCC4)ncc3c(=O)n2C)cc1` [Example 27]: less than 1 µM; for `CC(C)n1c(N2CCCC2)nn2c(C3CCOCC3)ncc2c1=O` [Example 207]: 10 to 100 µM.
As for `CCn1c(OCc2ccc(OC)cc2)nn2c(C3CCOCC3)ncc2c1=O` [Example 54], the IC50 was less than 1 µM.
The same measure for `Cn1c(OCC2(C(F)(F)F)CCCCC2)nn2c(C3CCOCC3)ncc2c1=O` [Example 297]: less than 1 µM; for `CCn1c(NCc2ncccc2C)nn2c(C(C)C)ncc2c1=O` [Example 173]: 1 to 10 µM; for `Cn1c(O[C@H]2CC[C@H](C(F)(F)F)CC2)nn2c(C3CCOCC3)ncc2c1=O` [Example 305, 3-methyl-7-(tetrahydro-2H-pyran-4-yl)-2-{[trans-4-(trifluoromethyl)cyclohexyl]oxy}-imidazo[5,1-f][1,2,4]triazin-4(3H)-one]: less than 1 µM.
With `CCn1c(OC(C)c2ccc(F)cc2)nn2c(C3CCOCC3)ncc2c1=O` (stereo not shown) [Example 69], the IC50 was less than 1 µM.
Take `COc1nn2c(C(C)OC)ncc2c(=O)n1CC1CCC(F)(F)CC1` (stereo not shown) [Example 114]: the IC50 is less than 1 µM.
For the compound `CCn1c(OCc2ccc(-c3ccccn3)cc2)nn2c(C3CCOCC3)ncc2c1=O` [Example 67], the IC50 was less than 1 µM.
The same measure for `CCn1c(OCCCc2ccccn2)nn2c(C3CCOCC3)ncc2c1=O` [Example 63]: less than 1 µM.
Consider `COCCn1c(OCC2CCC(F)(F)CC2)nn2c(C(C)C)ncc2c1=O` [Example 278], for which the IC50 is less than 1 µM.
For the compound `Cc1cccnc1CNc1nn2c(C(C)C)ncc2c(=O)n1C` [Example 157], the IC50 was less than 1 µM.
For `CCn1c(N2CCC[C@@H]2c2ccc(Cl)cc2)nn2c(C(C)C)ncc2c1=O` [Example 178], the IC50 is less than 1 µM.
The figure for `O=c1c2cnc(C3CCOCC3)n2nc(N2CCCC2)n1CCC1CCOCC1` [Example 215] is 10 to 100 µM; for `CCn1c(OCCc2ccncc2)nn2c(C3CCOCC3)ncc2c1=O` [Example 60] it is less than 1 µM.
The same measure for `Cn1c(OCc2cccc(F)c2)nn2c(C3CCOCC3)ncc2c1=O` [Example 40]: less than 1 µM.
The figure for `CCn1c(OCC2(C(F)(F)F)CCCC2)nn2c(C3CCOCC3)ncc2c1=O` [Example 296] is less than 1 µM; for `COc1nn2c(C(C)C)ncc2c(=O)n1CC1CCC(F)(F)CC1` [Example 263] it is less than 1 µM; for `CCn1c(OC[C@H]2CC[C@H](COC)CC2)nn2c(C3CCOCC3)ncc2c1=O` [Example 287] it is less than 1 µM.
In the case of `CCn1c(OCC2CCC(F)(F)CC2)nn2c(C3CCOCC3)nc(C)c2c1=O` [Example 121], the IC50 is less than 1 µM.
Consider `CC(C)c1ncc2c(=O)n(C)c(NCc3ccc(C#N)cn3)nn12` [Example 158], for which the half-inhibitory concentration (IC50) was less than 1 µM.
In the case of `Cn1c(OCC2CCC(OC(F)(F)F)CC2)nn2c(C3CCOCC3)ncc2c1=O` (stereo not shown) [Example 284], the IC50 was less than 1 µM.
The figure for `CC(C)c1ncc2c(=O)n(C)c(NCc3ccccc3)nn12` [Example 139] is less than 1 µM.
The same measure for `O=c1c2cnc(C3CCOCC3)n2nc(OCC2CCC(F)(F)CC2)n1CC1CC1` [Example 100]: less than 1 µM; for `CC(C)c1ncc2c(=O)n(C)c(OCc3ccncc3)nn12` [Example 15]: less than 1 µM.
The same measure for `Cc1ccnc(CNc2nn3c(C(C)C)ncc3c(=O)n2C)c1` [Example 156]: less than 1 µM; for `COc1nn2c(C3CCOCC3)ncc2c(=O)n1CC1CCCCC1` [Example 275]: less than 1 µM; for `CC(C)c1ncc2c(=O)n(C)c(CN3CCCc4cc(Cl)ccc43)nn12` [Example 229, 2-[(6-Chloro-3,4-dihydroquinolin-1(2H)-yl)methyl]-3-methyl-7-(propan-2-yl)imidazo[5,1-f][1,2,4]triazin-4(3H)-one]: less than 1 µM.
Regarding `CC(C)c1ncc2c(=O)n(C)c(CN(C)c3ccc(C(F)(F)F)cc3)nn12` [Example 230, 3-Methyl-2-({methyl[4-(trifluoromethyl)phenyl]amino}methyl)-7-(propan-2-yl)imidazo[5,1-f][1,2,4]triazin-4(3H)-one], the IC50 is less than 1 µM.
On to `COc1nn2c(C3CCOCC3)ncc2c(=O)n1Cc1ccc(F)cn1` [Example 269], for which the IC50 is less than 1 µM.
The same measure for `COCCCN1CCN(c2nn3c(C4CCOCC4)ncc3c(=O)n2C)CC1` [Example 196]: less than 1 µM; for `COc1nn2c(C3CCOCC3)ncc2c(=O)n1Cc1cccnc1` [Example 267]: 1 to 10 µM; for `CC(C)c1ncc2c(=O)[nH]c(N3CCCC3c3cccc(Cl)c3)nn12` (stereo not shown) [Example 133]: less than 1 µM.
Turning to `CCn1c(OCc2ccccc2)nn2c(C(C)C)ncc2c1=O` [Example 17], the IC50 is less than 1 µM.
Take `CCn1c(O[C@H]2CC[C@@H](COC)CC2)nn2c(C3CCOCC3)ncc2c1=O` [Example 319]: the IC50 is less than 1 µM.
The figure for `Cn1c(N2CC[C@H](Oc3ccc(F)cn3)C2)nn2c(C3CCOCC3)ncc2c1=O` [Example 190] is less than 1 µM; for `COc1nn2c(C3CCOCC3)ncc2c(=O)n1CC(C)C` [Example 271] it is less than 1 µM.
With `Cn1c(OCCCc2ncccc2F)nn2c(C3CCOCC3)ncc2c1=O` [Example 43], the IC50 was less than 1 µM.
The figure for `Cn1c(OCC2(C(F)(F)F)CCCC2)nn2c(C3CCOCC3)ncc2c1=O` [Example 295] is less than 1 µM; for `Cn1c(OCc2ccc(-c3ccc(Cl)cn3)cc2)nn2c(C3CCOCC3)ncc2c1=O` [Example 50] it is less than 1 µM; for `CCn1c(OCCc2ccc(-c3ccccc3)cc2)nn2c(C3CCOCC3)ncc2c1=O` [Example 77] it is less than 1 µM.
On to `CCOc1nn2c(C3CCOCC3)ncc2c(=O)n1CC1CCC(F)(F)CC1` [Example 102], for which the IC50 was less than 1 µM.
For the compound `COC[C@H]1CC[C@H](COc2nn3c(C4CCOCC4)ncc3c(=O)n2C)CC1` [Example 286], the IC50 is less than 1 µM.
The figure for `CC(C)c1ncc2c(=O)n(C)c(CN3Cc4ccccc4C3=O)nn12` [Example 232] is 1 to 10 µM; for `Cn1c(CN2CCCc3cc(Cl)ccc32)nn2c(C3CCCC3)ncc2c1=O` [Example 233] it is less than 1 µM; for `COCCn1c(OCc2ccc(F)cc2)nn2c(C3CCOCC3)ncc2c1=O` [Example 279] it is less than 1 µM.
The same measure for `CCCn1c(N2CCC[C@@H]2c2ccc(Cl)cc2)nn2c(C(C)C)ncc2c1=O` [Example 179]: less than 1 µM; for `CC(C)c1ncc2c(=O)n(C)c(NC3CCCc4ccccc43)nn12` (stereo not shown) [Example 138, 3-Methyl-7-(propan-2-yl)-2-(1,2,3,4-tetrahydronaphthalen-1-ylamino)imidazo[5,1-f][1,2,4]triazin-4(3H)-one]: less than 1 µM.
`CC(C)c1ncc2c(=O)n(C)c(COc3ccc(F)cc3)nn12` [Example 226]: the IC50 was less than 1 µM.
The same measure for `CC(C)c1ncc2c(=O)n(C)c(N3CCC[C@@H]3c3ccc(C#N)cc3)nn12` [Example 167]: 1 to 10 µM.
Take `CCn1c(OCC2CCCCC2)nn2c(C3CCOCC3)ncc2c1=O` [Example 89]: the IC50 is less than 1 µM.
The same measure for `COc1nn2c(C3CCOCC3)ncc2c(=O)n1CC1CCC1` [Example 273]: less than 1 µM; for `COc1cccc(Cn2c(OC)nn3c(C4CCOCC4)ncc3c2=O)c1` [Example 266]: less than 1 µM.

These data come from US20180044343A1, “BICYCLIC IMIDAZOLO DERIVATIVE” (Sumitomo Dainippon Pharma Co., Ltd., priority 2015, published 2018).
